Laboratory results published in publication PMC10597491 (PLOS ONE, 2023).
Bridge positions count the residues as written; N and C are the ends. Peptide text beside a SMILES is read from it.

How the values were obtained:
[1] = target: T1, IL-7R (Homo sapiens, UniProt P16871+P31785); test: STAT5 phosphorylation in TF1-7Rα cells; format: cell-based; conditions: TF1-7Rα cells, 10 μM peptide alone
T1 construct: constructed to express full-length human IL-7Rα in TF-1 cells; TF-1 cells, which naturally express γc, but not IL-7Rα; expressed in transfected cells
T1 sequence (P16871 21-459): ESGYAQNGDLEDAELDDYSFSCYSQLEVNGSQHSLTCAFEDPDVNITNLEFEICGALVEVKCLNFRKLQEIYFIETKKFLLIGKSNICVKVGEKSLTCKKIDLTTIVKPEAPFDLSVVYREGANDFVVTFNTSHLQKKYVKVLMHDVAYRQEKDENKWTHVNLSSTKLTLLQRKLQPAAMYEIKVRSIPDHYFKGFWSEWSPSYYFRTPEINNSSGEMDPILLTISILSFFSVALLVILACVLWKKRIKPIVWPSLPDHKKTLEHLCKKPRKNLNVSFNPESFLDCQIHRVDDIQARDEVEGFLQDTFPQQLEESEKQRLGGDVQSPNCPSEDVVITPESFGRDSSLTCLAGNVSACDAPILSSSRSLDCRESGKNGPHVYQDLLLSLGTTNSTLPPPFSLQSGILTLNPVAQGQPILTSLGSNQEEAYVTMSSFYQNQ
T1 sequence (P31785 23-369): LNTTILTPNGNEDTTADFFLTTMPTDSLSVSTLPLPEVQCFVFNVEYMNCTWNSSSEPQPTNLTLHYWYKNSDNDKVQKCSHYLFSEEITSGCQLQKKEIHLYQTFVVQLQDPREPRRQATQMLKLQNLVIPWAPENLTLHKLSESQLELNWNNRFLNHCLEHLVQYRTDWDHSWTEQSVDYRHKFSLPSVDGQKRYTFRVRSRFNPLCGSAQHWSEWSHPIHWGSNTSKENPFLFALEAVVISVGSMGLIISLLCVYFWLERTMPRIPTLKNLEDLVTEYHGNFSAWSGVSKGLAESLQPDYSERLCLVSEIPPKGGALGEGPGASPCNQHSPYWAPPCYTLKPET
Protocol: The synthetic peptide MDK1472 was designed to bind simultaneously to IL-7Rα and γc subunits and was tested for its ability to induce phosphorylation of STAT5, the primary IL-7R signaling pathway.
Reactions were stopped and cell lysates prepared for pSTAT5 analysis.
(§1) Cells were deprived of growth factors by overnight incubation at 5×10^5 cells/mL in starvation medium (RPMI 1640 + 4.5 g/L glucose + 0.2% FBS + 2 mM L-glutamine + 1 mM NaPyr + 10 mM HEPES + 0.5x penicillin-streptomycin with no cytokine supplement) in T75 flasks. For assays, cells were plated in 96-well V-bottom plates at 2×10^5 cells/well. Three-fold serial dilutions in starvation medium of the test compounds or cytokine were added to the cells and incubated for 30 min at 37°C. Following incubation, cell extracts were prepared by adding a mixture of 10x Cell Lysis Buffer (Cell Signaling Technology Cat# 9803) and 100x HALT Phosphatase and Protease Inhibitor Cocktail (Thermo Fisher Cat# 78442) directly to the wells. The plates were agitated at 25°C for 5 min to prepare cell extracts for immediate use or to be stored at -80°C until assay. Detection of pSTAT5 was performed using a PathScan® Phospho-Stat5 (pTyr694) Sandwich ELISA Kit (Cell Signaling Technology Cat# 7113). Detection of pSTAT6 was performed using a PathScan® Phospho-Stat6 (pTyr641) Sandwich ELISA Kit (Cell Signaling Technology Cat# 7275). Detection of pSTAT3 was performed using a PathScan® Phospho-Stat3 (pTyr705) Sandwich ELISA Kit (Cell Signaling Technology Cat# 7300). Cell lysates were added to pre-coated ELISA wells and incubated at 4°C overnight. Primary and secondary antibody incubations and wash steps were performed according to the protocols supplied by the manufacturer. Assays were developed using TMB substrate (Surmodics Cat# TMBW-1000-01) for 5–10 min at 25°C and the reaction was stopped using STOP solution (Surmodics Cat# LSTP-1000-01).

[2] = target: T2, IL-2βγc receptor (Homo sapiens, UniProt P31785); test: IL-2-induced pSTAT5 in TF-1 cells expressing IL-2/15Rβ; format: cell-based
T2 construct: pcDNA3.1 expression vector encoding full-length IL-2Rβ, IL-7Rα, IL-9Rα, or IL-21Rα; TF-1 cells naturally express γc and IL-4Rα; expressed in transfected cells
T2 sequence (P31785 23-369): T1 sequence (P31785 23-369)
Protocol: as §1, with “Primary and secondary antibody incubations and wash steps were performed according to the protocols supplied by the manufacturer. Assays were developed using TMB substrate (Surmodics Cat# TMBW-1000-01) for 5–10 min at 25°C and the reaction was stopped using STOP solution (Surmodics Cat# LSTP-1000-01).” left out

[3] = target: T3, human γc ECD (Homo sapiens, UniProt P31785); test: Competition binding ELISA, human γc ECD; conditions: immobilized Fc-γc ECD; tracer biotinylated MDK1188 pre-complexed with Neutravidin-HRP; 4°C
T3 construct: human IL-2Rα(aa 23–254)-Fc, Acro Cat# ILG-H5256; purchased Acro ILG-H5256
T3 sequence (P31785 23-254): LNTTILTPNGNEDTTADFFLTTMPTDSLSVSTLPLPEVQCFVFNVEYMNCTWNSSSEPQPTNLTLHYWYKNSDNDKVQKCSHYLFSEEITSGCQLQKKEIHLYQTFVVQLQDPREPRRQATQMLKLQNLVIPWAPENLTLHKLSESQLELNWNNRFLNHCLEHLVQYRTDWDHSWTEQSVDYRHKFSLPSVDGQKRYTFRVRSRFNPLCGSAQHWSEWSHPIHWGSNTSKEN
Description: (§2) (A, B) Determination of IC50 values in a competition ELISA for compound binding to human and cyno IL-7Rα and γc. The assay format is IL-7Rα-(His)6-tagged ECD or Fc-γc ECD immobilized on 96-well plates. Tracers are C-terminal biotinylated forms of the reference IL-7Rα and γc peptide ligands, each pre-complexed with Neutravidin-HRP (NA-HRP). (C, D) Label-free measurement of the equilibrium dissociation constant (KD) for peptide binding to IL-7Rα and γc extracellular domains with peptides was performed by biolayer interferometry as detailed in methods. Red lines depict 1:1 binding fit from Gator™ software. Blue lines represent individual BLI sensogram data taken every 0.1 seconds.
(§3) Binding was determined using a competition binding ELISA. Microtiter plates (Immulon 4HBX flat bottom 96-well) were coated with 50 μL of […] human ECDs: IL-7Rα(aa 21–236)-His6, Sino Biological Cat# 10975-H08H; cynomolgus IL-7Rα(aa 21–235)-His6, Sino Biological Cat# 90332-C08H; human IL-2Rα(aa 23–254)-Fc, Acro Cat# ILG-H5256; cynomolgus IL-2Rα(aa 23–254)-Fc, made in-house, in PBS overnight at 4°C. […] Plates were washed with cold wash buffer, and bound tracer was detected using TMB One Component HRP substrate and Stop Solution (Surmodics Cat# TMBW-1000-01 and LSTP-0100-01). Absorbance at 450 nm was read using Agilent BioTek Synergy HTX Multimode Reader.

[4] = target: T4, cynomolgus IL-7Rα (Macaca fascicularis, UniProt Q38IC7); test: Competition binding ELISA, cynomolgus IL-7Rα ECD; conditions: immobilized cynomolgus IL-7Rα-His6 ECD; biotinylated peptide/NA-HRP tracer; read-out: Competition ELISA IC50, IL-7Rα Cyno
T4 construct: cynomolgus IL-7Rα(aa 21–235)-His6, Sino Biological Cat# 90332-C08H; His6 (C); purchased Sino Biological 90332-C08H
T4 sequence (Q38IC7 21-235): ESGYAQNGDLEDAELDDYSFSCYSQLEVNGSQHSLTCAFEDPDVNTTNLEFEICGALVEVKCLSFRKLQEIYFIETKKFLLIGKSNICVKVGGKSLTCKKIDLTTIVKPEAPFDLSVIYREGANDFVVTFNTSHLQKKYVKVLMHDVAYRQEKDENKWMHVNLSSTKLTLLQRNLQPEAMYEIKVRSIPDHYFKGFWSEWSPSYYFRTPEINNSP
Description: as §2, §3

[5] = target: T5, human IL-7Rα ECD (Homo sapiens, UniProt P16871); test: Competition binding ELISA, human IL-7Rα ECD; conditions: immobilized IL-7Rα-(His)6 ECD; tracer biotinylated MDK1248 pre-complexed with Neutravidin-HRP; 4°C; valency-sensitive format
T5 construct: IL-7Rα(aa 21–236)-His6, Sino Biological Cat# 10975-H08H; His6 (C); purchased Sino Biological 10975-H08H
T5 sequence (P16871 21-236): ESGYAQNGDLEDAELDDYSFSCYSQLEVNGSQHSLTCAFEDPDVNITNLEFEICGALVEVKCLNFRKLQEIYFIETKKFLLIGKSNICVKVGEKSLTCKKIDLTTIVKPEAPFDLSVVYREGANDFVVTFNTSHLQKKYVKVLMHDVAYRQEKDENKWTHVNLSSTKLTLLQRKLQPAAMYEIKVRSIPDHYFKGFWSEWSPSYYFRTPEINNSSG
Description: as §2, §3

| induction of pSTAT5 by individual peptide ligands [1] | IC50 [2] | IC50 [3] | IC50 [4] | IC50 [5] | Compound |
| --- | --- | --- | --- | --- | --- |
| no induction of pSTAT5 | 1600 nM | 24 nM |  |  | CC(C)C[C@@H]1NC(=O)[C@H](CCC(=O)O)NC(=O)[C@H](C(C)C)NC(=O)CNC(=O)[C@H](CCC(=O)O)NC(=O)[C@H](Cc2c[nH]c3ccccc23)NC(=O)[C@H](CC(=O)O)NC(=O)[C@H](CCC(N)=O)NC(=O)[C@@H](NC(=O)[C@@H](NC(=O)[C@@H](NC(=O)CNC(=O)CN)C(C)C)C(C)C)CSSC[C@@H](C(=O)N[C@@H](Cc2c[nH]c3ccccc23)C(=O)N[C@@H](CCC(N)=O)C(=O)NCC(=O)NCC(=O)O)NC1=O [MDK1188] |
| no induction of pSTAT5 |  |  | 92 nM | 150 nM | CC[C@H](C)[C@H](NC(=O)CNC(=O)[C@H](Cc1c[nH]c2ccccc12)NC(=O)CN)C(=O)N1CCC[C@H]1C(=O)N[C@@H](Cc1c[nH]c2ccccc12)C(=O)N[C@H]1CSSC[C@@H](C(=O)N[C@@H](C)C(=O)N[C@@H](Cc2c[nH]c3ccccc23)C(=O)N[C@@H](CC(C)C)C(=O)NCC(=O)N[C@@H](CCCCN)C(=O)N[C@@H](Cc2c[nH]cn2)C(=O)NCC(=O)NCC(=O)O)NC(=O)[C@H](CCC(N)=O)NC(=O)[C@H](CC(C)C)NC(=O)[C@H](CO)NC(=O)CNC(=O)[C@@H]2CCCN2C(=O)[C@H](CC(=O)O)NC(=O)[C@H](CC(C)C)NC(=O)[C@H]([C@@H](C)O)NC1=O [MDK1248] (H-GWGIPWCTLDPGSLQCAWLGKHGG-OH; disulfide 7-16) |
